# Molecular target: CBP (Homo sapiens (Human), UniProt Q92793)
# Test: HTRF biochemical assay for CBP activity (TR-FRET, bromodomain)
# Assay type: binding
# Conditions: geometric mean, 10-point 3-fold dilution 33 μM to 1.7 nM, read-out: BROMO IC50 TRF TB CBP (μM gmean)
# In short: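 Compounds were tested as 10-point, 3-fold dilutions (33 μM to 1.7 nM final) against CBP protein and peptide ligand in pH 7.5 Hepes buffer with GSH, BGG, BSA and Triton X-100 at room temperature for varying times. The TR-FRET 520/490 ratio gave % inhibition versus no-enzyme and DMSO controls, and IC50 came from 4-parameter logistic fits.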
# Chain of CBP (Q92793 1085-1192): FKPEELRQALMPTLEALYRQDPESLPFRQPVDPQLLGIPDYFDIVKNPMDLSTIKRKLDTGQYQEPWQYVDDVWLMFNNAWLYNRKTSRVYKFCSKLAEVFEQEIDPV
row,SMILES,IC50 [µM]
1,COC(=O)N1CCc2ccc3c(nc([C@H]4CC[C@H](C(=O)O)CC4)n3[C@H](C)Cc3cc(F)cc(F)c3)c2C1 [Compound 253],0.01 to 0.1
2,COC(=O)N1CCc2ccc3c(nc([C@H]4CC[C@](C)(C(=O)O)CC4)n3[C@@H](C)Cn3cc(Cl)cn3)c2C1 [Compound 231],0.01 to 0.1
3,COC(=O)N1CCc2ccc3c(nc([C@H]4CCCOC4)n3C[C@@H](C(=O)O)c3ccc(C)cc3)c2C1 [Compound 58],0.001 to 0.01
4,COC(=O)N1CCc2cc(CC(=O)O)c3c(nc(C4CCCCC4)n3CCc3ccccc3)c2C1 [Compound 158],0.001 to 0.01
5,COC(=O)N1CCc2ccc3c(nc(-c4ccc(C(=O)O)c(F)c4)n3[C@@H](C)Cc3ccccc3)c2C1 [Compound 133],0.001 to 0.01
6,COC(=O)N1CCc2ccc3c(nc(C4CCN(C(C)=O)CC4)n3[C@H](C)Cc3cccnc3)c2C1 [Compound 346],0.1 to 1
7,COC(=O)N1CCc2ccc3c(nc([C@H]4CC[C@](C)(C(=O)O)CC4)n3[C@@H](C)Cc3ccccc3)c2C1 [Compound 224],0.01 to 0.1
8,CNC(=O)N1CCc2ccc3c(nc([C@H]4CC[C@H](C(=O)O)CC4)n3[C@@H](C)Cc3ccccc3)c2C1 [Compound 228],0.01 to 0.1
9,COC(=O)N1CCc2ccc3c(nc([C@H]4CC[C@H](C(=O)O)CC4)n3[C@@H](C)C[C@H]3CCCCO3)c2C1 [Compound 147],0.001 to 0.01
10,COC(=O)N1CCc2ccc3c(nc(-c4ccccn4)n3[C@@H](C)Cc3ccccc3)c2C1 [Compound 159],0.001 to 0.01
11,COC(=O)N1CCc2c([C@H]3CCOC3)cc3c(nc(C4CCC(C(=O)O)CC4)n3[C@@H](C)Cc3ccccc3)c2C1 (stereo partly shown) [Compound 256],0.01 to 0.1
12,COC(=O)N1CCc2ccc3c(nc([C@H]4CC[C@H](C(=O)O)CC4)n3C[C@@H]3CCc4ccccc4C3)c2C1 [Compound 211],0.01 to 0.1
13,COC(=O)N1CCc2ccc3c(nc([C@@H]4CCC[C@@H](C(=O)O)C4)n3C[C@H]3CC[C@H](OC)CC3)c2C1 [Compound 262],0.01 to 0.1
14,COC(=O)N1CCc2ccc3c(nc([C@H]4CC[C@H](C(=O)O)CC4)n3Cc3ccc(OC(F)F)cc3)c2C1 [Compound 171],0.001 to 0.01
15,"COC(=O)N1CCc2ccc3c(nc([C@@H]4CCC[C@@H](C(=O)O)C4)n3C(C)Cc3ccccc3)c2C1 (stereo in doubt) [Compound 298, (1R,3R)-3-[8-(methoxycarbonyl)-3-[(2R)-1-phenylpropan-2-yl]-3H,6H,7H,8H,9H-imidazo[4,5-h]isoquinolin-2-yl]cyclohexane-1-carboxylic acid]",0.1 to 1
16,COC(=O)N1CCc2ccc3c(nc(C4CCC4)n3C[C@@H](C(=O)O)c3ccccc3)c2C1 [Compound 157],0.001 to 0.01
17,COC(=O)N1CCc2ccc3c(nc([C@H]4CC[C@H](C(=O)O)CC4)n3[C@H](C)Cc3ccccc3)c2C1 [Compound 312],0.1 to 1
18,COC(=O)N1CCc2ccc3c(nc(C4CCCCC4)n3C[C@H](CC(=O)O)c3cc(F)cc(OC)c3)c2C1 [Compound 36],0.001 to 0.01
19,COC(=O)N1CCc2ccc3c(nc(C4CCCCC4)n3[C@@H](C)CC3CCCC[C@@H]3C(=O)O)c2C1 (stereo partly shown) [Compound 39],0.001 to 0.01
20,COC(=O)N1CCc2ccc3c(nc([C@H]4CC[C@H](C(=O)O)CC4)n3[C@@H](C)C[C@@H]3CCCCO3)c2C1 [Compound 260],0.01 to 0.1
21,COC(=O)N1CCc2ccc3c(nc(C4CCCCC4)n3C[C@@H](O)c3cccc(C(=O)O)c3)c2C1 [Compound 199],0.01 to 0.1
22,COC(=O)N1CCc2ccc3c(nc(C4CCCCC4)n3C[C@H](O)c3cccc(C(=O)O)c3)c2C1 [Compound 173],0.01 to 0.1
23,COC(=O)N1CCc2ccc3c(nc(C4CCCCC4)n3CC[C@@H]3CCC[C@@H](C(=O)O)C3)c2C1 [Compound 168],0.001 to 0.01
24,COC(=O)N1CCc2ccc3c(nc([C@H]4CC[C@H](C(=O)O)CC4)n3[C@H]3CCc4ccccc4C3)c2C1 [Compound 315],0.1 to 1
25,COC(=O)N1CCc2ccc3c(nc(C4CCCC4)n3C[C@H](C(=O)O)c3ccccc3)c2C1 [Compound 55],0.001 to 0.01

# Reference: patent publication US20250188079A1, “INHIBITING CYCLIC AMP-RESPONSIVE ELEMENT-BINDING PROTEIN (CREB)” (Forma Therapeutics, Inc., priority 2019, published 2025)
